Laboratory results reported in patent publication US11884647B2, “Compounds and methods for targeting pathogenic blood vessels” (THE REGENTS OF THE UNIVERSITY OF CALIFORNIA, priority 2019, dated 2024).
“Also recorded” adds a separate entry of the source.

Experiments:
[1] = tested on: PLXDC1; assay: PLXDC1 receptor activation assay (Gfi1b promotor luciferase reporter); assay type: cell-based; conditions: treatment 1 day; basal activity of PLXDC1-expressing cells = 1
Text: (§1) FIG. 5A-B show activation of PLXDC1 and PLXDC2 by small molecules. […] All compound treatments were done for 1 day. Basal promotor activity of the PLXDC1-expressing cells is defined as 1.

[2] = tested on: tumor endothelial cells (LL/2 lung cancer tumor); assay: Lung LL2 ex vivo model of tumor angiogenesis; assay type: cell-based, mouse; conditions: Mus musculus, Endothelial cell, 48 h, read-out: Cell death
Summary of the method: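 Read-out is live/dead fluorescence imaging (fluorescein diacetate green, propidium iodide red, 10 min at 37° C) at 2×, taken e.g. 48 h after drug addition. Fragments of mouse LL2 tumor are cultured in Matrigel with endothelial growth medium, usually 4 days, until new endothelial cells grow out, then treated.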

[3] = tested on: PLXDC2; assay: PLXDC2 receptor activation (Gfi1b promotor luciferase reporter); assay type: cell-based; conditions: treatment 1 day
Text: as §1

[4] = target: T1, extracellular domain of PLXDC1 (PLXDC1-ECD) (Homo sapiens, UniProt Q8IUK5); assay: Binding to PLXDC1 extracellular domain by suppression of tryptophan fluorescence
T1 construct: the extracellular domain of PLXDC1 (PLXDC1-ECD)
T1 sequence (Q8IUK5 19-426 limits assumed): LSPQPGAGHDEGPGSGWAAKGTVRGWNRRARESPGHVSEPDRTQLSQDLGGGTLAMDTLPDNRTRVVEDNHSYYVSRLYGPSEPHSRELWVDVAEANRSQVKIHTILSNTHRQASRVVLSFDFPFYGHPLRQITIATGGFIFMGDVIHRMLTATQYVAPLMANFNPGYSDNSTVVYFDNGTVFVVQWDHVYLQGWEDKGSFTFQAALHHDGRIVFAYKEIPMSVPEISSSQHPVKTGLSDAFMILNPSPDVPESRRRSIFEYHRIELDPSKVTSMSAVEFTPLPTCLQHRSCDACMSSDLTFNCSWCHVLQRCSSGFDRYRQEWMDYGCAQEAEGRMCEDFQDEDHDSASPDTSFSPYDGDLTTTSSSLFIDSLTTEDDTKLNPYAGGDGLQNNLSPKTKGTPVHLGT
Experimental: The high affinity interaction between compound 346 (Table 3) and the extracellular domain of PLXDC1 (PLXDC1-ECD). […] Tryptophan fluorescence without the compound added is defined as 1. The estimated Kd value is 50 nM.

[5] = tested on: tumor / tumor blood vessels; assay: Tumor animal model, bolus IV injection at day 0, tumor growth and morphology; assay type: in vivo, mouse; conditions: versus control group
Text: Treatment was done at day 0 by bolus IV injection. […] Treatment was done at day 0. […] Treatment was done at day 0.

[6] = tested on: pathogenic blood vessels of the retina; assay: Ischemia-induced retinopathy in vivo; design: species or system mouse; conditions: subcutaneous injection during return to room air; n=10 retinas
Text: A. Upper graph: Schematic diagram of the experimental design for ischemia-induced retinopathy. The high oxygen environment caused blood vessel loss (vaso-obliteration). In room air, loss of vessels triggered abnormal angiogenesis that generated pathogenic blood vessels on the top of the retina (marked in yellow in D). Treatment was applied during the return to room air by subcutaneous injection. […] Red signal is blood vessel marker. C. The same retinas in B with vaso-obliteration areas marked in white color. […] D. The same retinas in B with pathogenic blood vessels marked in yellow color. […] FIG. 7A includes a schematic diagram of the experimental design for ischemia-induced retinopathy. The high oxygen environment caused blood vessel loss (vaso-obliteration). In room air, loss of vessels triggered abnormal angiogenesis that generated pathogenic blood vessels on the top of the retina (marked in yellow in FIG. 7D). Treatment was applied during the return to room air by subcutaneous injection. […] The same retinas in B with vaso-obliteration areas marked in white color (FIG. 7C). […] The same retinas in B with pathogenic blood vessels marked in yellow color (FIG. 7D).

| SMILES | Gfi1b promotor activity in PLXDC1-expressing cells [1] | cytotoxicity at 20 µM [2] [%] | Gfi1b promotor activity in PLXDC2-expressing cells [3] | suppression of endogenous tryptophan fluorescence of PLXDC1-ECD ([4]; different concentrations, fluorescence without compound = 1) | Kd ([4]; estimated from dose-dependent suppression of PLXDC1-ECD tryptophan fluorescence) [nM] | tumor growth (shrinkage) [5] | healthy blood vessels in ischemia-induced retinopathy [6] | pathogenic blood vessels in ischemia-induced retinopathy [6] |
| --- | --- | --- | --- | --- | --- | --- | --- | --- |
| O=c1[nH]cc(F)c(=O)[nH]1 [Fluorouracil, reference compound] | does not activate this promoter |  |  |  |  |  |  |  |
| CCCCCCCCCCCCOc1ccc(S(=O)(=O)c2cnc3ccc([S+](C)[O-])cc3c2N2CCC(N3CCC(N4CCCCC4)CC3)CC2)cc1 (stereo not drawn) [compound 342, 4-([1,4′:1′,4″-terpiperidin]-1″-yl)-3-((4-(dodecyloxy)phenyl)sulfonyl)-6-(methylsulfinyl)quinoline] | highly activated the promotor activity in PLXDC1-expressing cells | 60 | activated the promotor activity in PLXDC2-expressing cells |  |  |  |  |  |
| CCCCCCCCCCCCCCOc1ccc(S(=O)(=O)c2cnc3ccc([S+](C)[O-])cc3c2N2CCC(N3CCC(N4CCN(C)CC4)CC3)CC2)cc1 (stereo not drawn) [compound 346, 4-(4-(4-methylpiperazin-1-yl)-[1,4′-bipiperidin]-1′-yl)-6-(methylsulfinyl)-3-((4-(tetradecyloxy)phenyl)sulfonyl)quinoline] | highly activated the promotor activity in PLXDC1-expressing cells | 20 | activated the promotor activity in PLXDC2-expressing cells | suppressed the endogenous tryptophan fluorescence of PLXDC1-ECD in a dose-dependent manner | 50 | shrank the tumors significantly | improving the amount of healthy blood vessels | specifically suppressed pathogenic blood vessels in vivo without affecting healthy blood vessels; also recorded: highly suppressed pathogenic blood vessels |
